Data: publication PMC6130562, “A phlorotannin constituent of Ecklonia cava alleviates postprandial hyperglycemia in diabetic mice” (Pharmaceutical Biology, 2017)

Experiments:
[1] = biological target: α-glucosidase (yeast); assay: chromogenic pNPG hydrolysis assay ([…] nm), commercial yeast enzyme; format: biochemical
[2] = biological target: T1, α-amylase (porcine pancreatic amylase) (Sus scrofa, UniProt P00690); assay: chromogenic enzyme inhibition assay ([…] nm), commercial porcine pancreatic amylase; format: biochemical
T1 construct: gene AMY2
T1 sequence (P00690 16-511): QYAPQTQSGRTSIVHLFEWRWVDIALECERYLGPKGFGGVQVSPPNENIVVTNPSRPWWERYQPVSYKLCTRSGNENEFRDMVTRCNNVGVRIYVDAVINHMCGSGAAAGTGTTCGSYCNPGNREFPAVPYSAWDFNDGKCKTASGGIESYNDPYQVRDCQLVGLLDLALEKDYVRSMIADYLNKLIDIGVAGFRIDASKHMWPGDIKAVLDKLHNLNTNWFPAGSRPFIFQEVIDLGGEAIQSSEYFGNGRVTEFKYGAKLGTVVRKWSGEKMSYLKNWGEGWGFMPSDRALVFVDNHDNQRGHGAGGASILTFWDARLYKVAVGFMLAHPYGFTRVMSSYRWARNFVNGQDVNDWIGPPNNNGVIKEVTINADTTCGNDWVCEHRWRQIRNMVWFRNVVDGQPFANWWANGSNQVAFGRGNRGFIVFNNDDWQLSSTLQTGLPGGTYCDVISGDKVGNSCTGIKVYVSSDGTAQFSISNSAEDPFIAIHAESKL

IC50 [1]: 23.4 µM | IC50 [2]: 6.94 µM
Compound: Oc1cc(O)cc(Oc2cc(O)c3c(c2-c2c(O)cc(O)c4c2Oc2c(O)cc(Oc5c(O)cc(O)cc5O)c(Oc5cc(O)cc(O)c5)c2O4)Oc2c(O)cc(O)c(Oc4cc(O)cc(O)c4)c2O3)c1 [2,7″-Phloroglucinol-6,6′-bieckol]
